Results published in US20220289678A1, “COMPOUND, POLYMER, AND ORGANIC MATERIAL, AND OPTICAL APPARATUS, OPTICAL PART, AND IMAGE DISPLAY APPARATUS USING THE ORGANIC MATERIAL” (Sony Group Corporation, priority 2019, published 2022).
Read-outs that look alike come from different tables or passages of the source.

How the values were obtained:
[1] = commercial product, Osaka Gas Chemical Co., Ltd.; cited from earlier work
[2] = Refractive index of compound, Abbe refractometer, calibration curve extrapolated; type: physicochemical; conditions: for Refractive index: average refractive index to light of 589 nm, 25±1° C., acetone or chloroform solution, extrapolated to volume fraction 1; for Refractive index compared with compound (11-1) according to Test Example 15: comparison in words
Description: Note that the refractive index can be measured by a critical angle method or a spectroscopic ellipsometry method. For example, in the critical angle method, measurement can be performed using an Abbe refractometer ER-1 manufactured by ERMA INC (measurement wavelengths are measured in visible light areas using 486 nm, 589 nm, 656 nm, and the like).
(§1) An acetone solution or a chloroform solution of each of the compounds according to Test Examples 1 to 15 was prepared, and the average refractive index to light of 589 nm at room temperature of 25±1° C. was measured by an Abbe refractometer (manufactured by ERMA INC., ER-1), and plotted against the volume fraction of each compound to prepare a calibration curve. Note that as the density of each compound, a value determined by a dry densitometer (AccuPyc II 1340-10CC (manufactured by Shimadzu Corporation)) was used. The calibration curve was extrapolated, and the refractive index when the volume fraction of each compound became 1 was used as the refractive index of each compound. The measurement results of the refractive index and density (g/cm^3) of each of the compounds according to Test Examples 1 to 15 are shown in Table 1 below.

[3] = Solubility in organic solvent, visual dissolution; type: physicochemical; conditions: ultrasonic stirring
Description: 20 mg of each of the compounds according to Test Examples 1 to 15 was weighed into a vial bottle, acetone was added to make a total amount of […], and then, the mixture was stirred with ultrasonic waves for 30 seconds. In the case where there was an undissolved product by visual recognition, a small amount of acetone was added thereto, and the mixture was stirred for another 30 seconds. The task described above was repeated, and the solubility was calculated from the total amount of solvents when all were dissolved.

[4] = Density by dry densitometer; type: physicochemical; conditions: dry densitometer AccuPyc II 1340-10CC
Description: as §1

Refractive index [2] | Solubility Acetone [3] | Density [4] | Solubility Chloroform [3] | Compound | Refractive index [1] | Refractive index compared with compound (11-1) according to Test Example 15 [2]
 |  |  |  | bisphenoxyethanol fluorene diacrylate [EA-0200] | 1.62 | 
1.68 | 44 wt % | 1.21 g/mL |  | C=CC(=O)OCCn1c2ccccc2c2ccccc21 [(11-1), acrylic acid 2-(9H-carbazol-9-yl) ethyl, reference compound] |  | 
 |  |  |  | C=CC(=O)OCCCCOc1cc(OCCCCOC(=O)C=C)cc(-n2c3ccc4ccccc4c3c3c4ccccc4ccc32)c1 [(10-11)] |  | higher than the refractive index of the compound (11-1)
 |  |  |  | C=CC(=O)OCCOCC(Cn1c2ccc3ccccc3c2c2c3ccccc3ccc21)OCCOC(=O)C=C (centres unmarked) [(10-6)] |  | higher than the refractive index of the compound (11-1)
1.72 |  | 1.22 g/mL |  | C=CC(=O)OCC(Cn1c2ccc3ccccc3c2c2c3ccccc3ccc21)OC(=O)C=C (centres unmarked) [(10-4)] |  | higher than the refractive index of the compound (11-1)
 | 3 wt % | 1.31 g/mL |  | C=CC(=O)Oc1cc(OC(=O)C=C)cc(-n2c3ccc4ccccc4c3c3c4ccccc4ccc32)c1 [(6-8)] |  | higher than the refractive index of the compound (11-1)
 |  | 1.22 g/mL |  | C=CC(=O)OCCn1c2ccc3ccccc3c2c2c3ccccc3ccc21 [(6-3)] |  | higher than the refractive index of the compound (11-1)
 | 5 wt % | 1.3 g/mL | 17 wt % | C=CC(=O)Oc1cc(Cn2c3ccc4ccccc4c3c3c4ccccc4ccc32)cc(OC(=O)C=C)c1 [(10-1)] |  | higher than the refractive index of the compound (11-1)
 |  | 1.27 g/mL |  | C=CC(=O)OCCOc1cc(OCCOC(=O)C=C)cc(-n2c3ccc4ccccc4c3c3c4ccccc4ccc32)c1 [(10-10)] |  | higher than the refractive index of the compound (11-1)
 |  |  |  | C=C(C)C(=O)OCCOCC(Cn1c2ccc3ccccc3c2c2c3ccccc3ccc21)OCCOC(=O)C(=C)C (centres unmarked) [(10-7)] |  | higher than the refractive index of the compound (11-1)
1.74 | 5 wt % | 1.31 g/mL | 13 wt % | C=CC(=O)OCCn1c2ccccc2c2ccc3ccccc3c21 [(10-9)] |  | higher than the refractive index of the compound (11-1)
1.72 |  | 1.26 g/mL | 19 wt % | C=C(C)C(=O)OCC(Cn1c2ccc3ccccc3c2c2c3ccccc3ccc21)OC(=O)C(=C)C (centres unmarked) [(10-5)] |  | higher than the refractive index of the compound (11-1)
1.71 |  | 1.29 g/mL |  | C=CC(=O)OCCOc1cc(Cn2c3ccc4ccccc4c3c3c4ccccc4ccc32)cc(OCCOC(=O)C=C)c1 [(10-3)] |  | higher than the refractive index of the compound (11-1)
1.74 | 18 wt % | 1.3 g/mL |  | C=CC(=O)OCCn1c2ccccc2c2c3ccccc3ccc21 [(10-8)] |  | higher than the refractive index of the compound (11-1)
1.69 |  | 1.26 g/mL |  | C=CC(=O)OCCOc1cc(OCCOC(=O)C=C)cc(-n2c3ccccc3c3c4ccccc4ccc32)c1 [(10-12)] |  | higher than the refractive index of the compound (11-1)
1.73 | 20 wt % | 1.29 g/mL |  | C=CC(=O)Oc1cc(CCn2c3ccc4ccccc4c3c3c4ccccc4ccc32)cc(OC(=O)C=C)c1 [(10-2)] |  | higher than the refractive index of the compound (11-1)
